Patent EP4631963A1, “PEPTIDE FOR CARTILAGE REGENERATION, AND USES THEREOF” (Caregen Co., Ltd., priority 2022, dated 2024)
Where a SMILES comes first, the peptide text is derived from it. Where no end group is shown, it is not given here.

Test system: C28/I2, human chondrocyte cell line
Assay: CCK-8 cytotoxicity assay
Assay type: cell-based
Conditions: C28/I2 cells, different concentrations, 3 days, 450 nm; FIG. 1, FIG. 2
Procedure: The cytotoxicity of Peptide-1 or Peptide-2 upon addition to human-derived chondrocytes (C28/I2, human chondrocyte cell line) was analyzed using a CCK-8 assay.
Specifically, human-derived chondrocytes were seeded in a 96-well plate at a density of 3 × 10^3 cells/well and cultured in DMEM medium (cat. 11995-065, Gibco) for 24 hours.

## CC(C)C[C@H](NC(=O)[C@@H](NC(=O)[C@@H](N)CCCNC(=N)N)[C@@H](C)O)C(=O)N[C@@H](CCC(=O)O)C(=O)O [Peptide-2, RTLE] (H-RTLE-OH)
  toxicity in human-derived chondrocytes (CCK-8 activity): did not exhibit toxicity

## HHEERY [Peptide-1, HHEERY]
  toxicity in human-derived chondrocytes (CCK-8 activity): did not exhibit toxicity
